From PMC4910235, “Selenophene and thiophene-core estrogen receptor ligands that inhibit motility and development of parasitic stages of Haemonchus contortus” (Parasites & Vectors, 2016)
Like-named read-outs stand apart in the source and are kept apart here.

Columns and labels:
Assay type in all cases: cell-based, Haemonchus contortus
L4 stage of H. contortus = assay: Scanning electron microscopy of treated L4s; settings: 100 μM, 24 h
Procedure: (§1) SEM was used to assess whether compounds that reduced motility by ≥ 70 % caused structural damage to the larval stages. The xL3s and L4s were cultivated as described previously. Compounds were diluted to a final concentration of 100 μM in LB*, and 50 μl were transferred to wells of a 96-well microculture plate; six wells were used for each treatment and for the negative control which contained LB* and 1 % methanol (AR1115-P2.5 L, RCI; Labscan Limited). The xL3s and L4s were resuspended in LB* at a density of ~6,000 per ml, and 50 μl were transferred into individual wells. Compounds were incubated with the larvae for 24 h at 38 °C and 10 % CO2. Following incubation, for each treatment, the larvae from each of the six wells were pooled into 1.5 ml Eppendorf tubes, washed 3 times in 0.9 % saline at 9,000 g and resuspended in 1 ml of phosphate-buffered saline (PBS). Subsequently, the larvae were fixed in 2.5 % glutaraldehyde in PBS for 2 h at room temperature, rinsed three times in PBS for 15 min, and then post-fixed in 1 % osmium tetroxide for 2 h at room temperature. Fixed larvae were rinsed again 3 times in PBS for 15 min. Then, aliquots of concentrated larvae (200 μl) were incubated on polyethyleneimine (PEI)-coated glass coverslips (pre-prepared by smearing 22 mm square glass coverslips with a 0.1 % solution of PEI and dried by heat under a cool flame). Following this incubation, the excess supernatant was removed, and the coverslips with adhered nematodes were dehydrated in increasing concentrations of ethanol (10, 30, 50, 70, 90 and 100 %) in water for 30 min. The coverslips were dried in a critical point dryer (EM CPD030, Leica, Wetzlar, Germany) and mounted on to aluminium stubs (25 mm) with double-sided carbon tabs. The coverslips were then coated with gold using a Xenosput sputter coater (Dynavac, Australia). The larvae on the coverslips were imaged using a field-emission scanning electron microscope (XL30 Philips, Netherlands) at 2.0 kV using a spot size of two; 12 representative images were taken of each sample.

[1] = tested on: xL3 stage of H. contortus; assay: Scanning electron microscopy of treated xL3s; settings: 100 μM, 24 h
Procedure: as §1

[2] = tested on: exsheathed third-stage larvae (xL3s) of H. contortus; assay: xL3 motility assay (whole-organism screen and dose-response)
Procedure: The selenophene and thiophene-core ligands (n = 74) (Additional file 1) were screened at a concentration of 20 μM on exsheathed third-stage larvae (xL3s) of H. contortus in 96-well microculture plates (cat. no. 3635; Corning 3650, Life Sciences, Corning, USA) using relevant control compounds (i.e. moxidectin and monepantel), as described previously. In brief, compounds were dissolved to a stock concentration of 10 mM in either dimethyl sulfoxide (DMSO) or methanol (Sigma-Adrich Scientific, St. Louis, USA). These ligands were then individually diluted to the final concentration of 20 μM using Luria Bertani medium (LB) supplemented with 100 IU/ml of penicillin, 100 μg/ml of streptomycin and 2.5 μg/ml of amphotericin (LB*). Compounds were dispensed (in triplicate) into the wells of a 96-well microculture plate using a multichannel pipette. In addition, the negative controls (LB*, LB* + 0.5 % solvent; six wells each), and positive controls (20 μM of monepantel; Zolvix, Novartis Animal Health, Basel, Switzerland and 20 μM of moxidectin; Cydectin, Virbac, Carros, France; triplicate wells) and xL3s (~300/well) were dispensed into wells of the plate using an automated multichannel pipette (Viaflo Assist/II, Integra Biosciences, Zizers, Switzerland). […], a video recording (5 s) was taken of each well of the 96-well microculture plate (containing xL3s) using a greyscale camera (Rolera Bolt CMOS, Qimaging Scientific, Surrey, Canada) and a motorised X-Y axis stage (BioPoint 2, Ludl Electronics Products, Hawthorne, USA). Individual videos were processed to calculate a motility index (MI) using an algorithm described previously. MIs were normalised to the negative and positive controls (to remove plate-to-plate variation) using the program Prism (v.6 GraphPad Software, USA). Z’-scores were calculated to validate the performance of the screening assay; reliable assays achieve Z’-scores of between 0.5 and 1 [28]. A compound was recorded as having an activity if it reduced xL3 motility by ≥ 70 % following incubation for 72 h. […] Compounds that reduced the motility of xL3s were also tested for their ability to inhibit the motility of L4s (same protocol as for xL3s) and/or to affect the development of xL3s to L4s. Following the measurement of L4 motility, larvae were re-incubated for 4 more days and fixed with 1 % iodine (50 μl). Then, L4 development was assessed based on the presence of a well-developed mouth/pharynx using a light microscope and expressed as a percentage of the total number of larvae examined (n = 30).
All assays (to assess xL3 motility, L4 development and L4 motility) were performed in triplicate, three times, on separate days.

[3] = Haemonchus contortus, 24 h; read-out: xL3 motility (IC50s in μM)
[4] = Haemonchus contortus, 48 h; read-out: xL3 motility (IC50s in μM)
[5] = Haemonchus contortus, 72 h, 20 μM, 72 h; percent of motility compared with controls; mean of triplicate ± SEM; read-out: xL3 Motility Index(%)
[6] = Haemonchus contortus, 72 h; read-out: xL3 motility (IC50s in μM)
[7] = Haemonchus contortus; 20 μM, 72 h; read-out: inhibition of xL3 motility in the primary screen

| SMILES | cuticle damage of L4s by SEM (L4 stage of H. contortus) | structural damage of xL3s by SEM [1] | IC50 [2, 3] | IC50 [2, 4] | activity at 20 µM [2, 5] | IC50 [2, 6] | inhibition at 20 µM [2, 7] | IC50 ([2]; Haemonchus contortus; read-out: xL3 motility IC50 at both 48 h and 72 h) | IC50 ([2]; Haemonchus contortus, 24 h, read-out: xL3 motility (IC50s in μM)) | IC50 ([2]; Haemonchus contortus, 48 h, read-out: xL3 motility (IC50s in μM)) | inhibition at 20 µM ([2]; Haemonchus contortus, 72 h, read-out: inhibition of xL3 motility in the primary screen) | activity at 20 µM ([2]; Haemonchus contortus, 72 h, read-out: xL3 Motility Index(%), 20 μM, 72 h; percent of motility compared with controls; mean of triplicate ± SEM) | IC50 ([2]; Haemonchus contortus, 72 h, read-out: xL3 motility (IC50s in μM)) |
| --- | --- | --- | --- | --- | --- | --- | --- | --- | --- | --- | --- | --- | --- |
| Oc1ccc(-c2cscc2-c2ccc(O)cc2Cl)c(Cl)c1 [MJ-17] | distinct damage | no structural damage | 25.7 µM | 25.6 µM | 20.6 ± 4.9% | 23.8 µM | > 70% | 23.8 to 25.6 µM | – | – | – | – | – |
| Cc1cc(O)ccc1-c1ccc(-c2ccc(O)cc2F)s1 [MJ-22] | distinct damage | no structural damage | 6.6 µM | 7.2 µM | 6.7 ± 8.2% | 9.6 µM | > 70% | – | – | – | – | – | – |
| C[C@](C#N)(COc1cc(C#N)ccc1C(F)(F)F)NC(=O)c1ccc(SC(F)(F)F)cc1 [Monepantel, reference compound] | cuticle damage | – | ~52.1 µM | 6 µM | – | 0.4 µM | – | – | – | – | – | – | – |
| CO/N=C1\C[C@]2(C[C@@H]3C[C@@H](C/C=C(\C)C[C@@H](C)/C=C/C=C4\CO[C@@H]5[C@H](O)C(C)=C[C@@H](C(=O)O3)[C@]45O)O2)O[C@H](/C(C)=C/C(C)C)[C@H]1C [Moxidectin, reference compound] | did not induce any cuticle damage | – | 2.5 µM | 2.5 µM | – | 2.3 µM | – | – | – | – | – | – | – |
| Oc1ccc(-c2ccc(-c3ccc(O)cc3Cl)[se]2)c(Cl)c1 [WZY-2] | distinct damage | no structural damage | – | – | – | – | – | – | 10 µM | 13 µM | > 70% | 12.3 ± 0.1% | 12.1 µM |
